Source: ChEMBL document CHEMBL1137621, “3-Nitro-4-amino benzoic acids and 6-amino nicotinic acids are highly selective agonists of GPR109b” (Bioorg Med Chem Lett, 2007)
The source made the active and inactive calls. The rule behind the calls is not given here.

Assays:
[1] = target: Hydroxycarboxylic acid receptor 3 (Homo sapiens, UniProt P49019); test: Agonist activity at human GPR109b receptor transfected in CHOK1 cells assessed as reversal of forskolin-induced cAMP elevating effect by whole cell assay; assay type: functional, cell-based, CHO-K1
Hydroxycarboxylic acid receptor 3, sequence (P49019 whole entry): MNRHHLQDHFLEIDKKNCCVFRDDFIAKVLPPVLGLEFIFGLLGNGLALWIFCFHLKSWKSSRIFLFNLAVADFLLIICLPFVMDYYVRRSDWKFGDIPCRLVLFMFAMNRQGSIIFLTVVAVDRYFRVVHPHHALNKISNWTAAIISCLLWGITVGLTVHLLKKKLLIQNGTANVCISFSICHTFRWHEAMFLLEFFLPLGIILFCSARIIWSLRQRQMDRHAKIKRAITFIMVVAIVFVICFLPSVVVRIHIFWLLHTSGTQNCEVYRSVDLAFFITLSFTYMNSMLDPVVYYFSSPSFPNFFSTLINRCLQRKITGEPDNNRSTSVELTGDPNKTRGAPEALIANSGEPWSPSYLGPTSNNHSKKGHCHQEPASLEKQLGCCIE

[2] = target: T1, Hydroxycarboxylic acid receptor 2 (Homo sapiens, UniProt Q8TDS4); test: Agonist activity at human GPR109a receptor transfected in CHOK1 cells at 30 uM assessed as reversal of forskolin induced cAMP elevating effect by whole cell assay; assay type: functional, cell-based; settings: CHO-K1
T1 sequence (Q8TDS4 whole entry): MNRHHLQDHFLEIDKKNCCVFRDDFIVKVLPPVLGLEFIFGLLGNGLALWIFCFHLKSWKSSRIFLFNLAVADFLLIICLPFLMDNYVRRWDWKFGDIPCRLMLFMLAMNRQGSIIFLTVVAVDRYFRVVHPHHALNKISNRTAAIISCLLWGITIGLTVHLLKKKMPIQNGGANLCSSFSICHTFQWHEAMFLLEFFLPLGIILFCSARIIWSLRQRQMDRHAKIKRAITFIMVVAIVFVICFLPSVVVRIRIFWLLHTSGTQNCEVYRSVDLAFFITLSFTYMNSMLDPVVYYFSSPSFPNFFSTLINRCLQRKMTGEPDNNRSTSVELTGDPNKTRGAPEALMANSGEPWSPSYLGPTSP

[3] = target: T1, Hydroxycarboxylic acid receptor 2; test: Agonist activity at human GPR109a receptor transfected in CHOK1 cells assessed as reversal of forskolin induced cAMP elevating effect by whole cell assay; assay type: functional, cell-based, CHO-K1

Q: Which EC50 [1] does the source give for `CN(C)c1ccc(C(=O)O)cn1` here?
A: > 10000 nM

Q: And the Activity [2]?
A: inactive

Q: With `CCCNc1ccc(C(=O)O)cn1` as the molecule, how does the EC50 [1] read?
A: 51.3 nM

Q: What about the Activity [2] of the same molecule?
A: inactive

Q: `O=C(O)c1ccc(NC2CCC2)c([N+](=O)[O-])c1` was tested. Which EC50 [1] did it give?
A: 200 nM

Q: What about the Activity [2] of the same molecule?
A: inactive

Q: Which EC50 [1] does the source give for `CCCCCNc1ccc(C(=O)O)cc1[N+](=O)[O-]` here?
A: 282 nM

Q: And the Activity [2]?
A: inactive

Q: How did the EC50 [1] turn out when `C=CCNc1ccc(C(=O)O)cc1[N+](=O)[O-]` was run?
A: 100 nM

Q: And the Activity [2]?
A: inactive

Q: With `CCNc1ccc(C(=O)O)cc1[N+](=O)[O-]` as the molecule, how does the EC50 [1] read?
A: 229 nM

Q: What about the Activity [2] of the same molecule?
A: inactive

Q: Which results are given for `O=C(O)c1ccc(NC(=O)c2ccccc2)c([N+](=O)[O-])c1`?
A: EC50 [1]: 3090 nM; Activity [2]: inactive

Q: Which results are given for `CCCCNc1ccc(C(=O)O)cc1[N+](=O)[O-]`?
A: EC50 [1]: 158 nM; Activity [2]: inactive

Q: Which results are given for `O=C(O)c1ccc(NCC2CCCO2)c([N+](=O)[O-])c1` (centres undefined)?
A: EC50 [1]: 309 nM; Activity [2]: inactive

Q: For `COCCNc1ccc(C(=O)O)cc1[N+](=O)[O-]`, which EC50 [1] is on record?
A: 589 nM

Q: What about the Activity [2] of the same molecule?
A: inactive

Q: What does the source list for `O=C(O)c1ccc(N2CCCC2)c([N+](=O)[O-])c1`?
A: EC50 [1]: > 10000 nM; Activity [2]: inactive

Q: With `O=C(O)c1ccc(NC2CC2)nc1` as the molecule, how does the EC50 [1] read?
A: 324 nM

Q: And the Activity [2]?
A: inactive

Q: With `COCC(C)Nc1ccc(C(=O)O)cc1[N+](=O)[O-]` (centres undefined) as the molecule, how does the EC50 [1] read?
A: 1410 nM

Q: What about the Activity [2] of the same molecule?
A: inactive

Q: Which results are given for `CCC(C)Nc1ccc(C(=O)O)cn1` (centres undefined)?
A: EC50 [1]: 380 nM; Activity [2]: inactive

Q: What does the source list for `CC(C)C(C)Nc1ccc(C(=O)O)cc1[N+](=O)[O-]` (centres undefined)?
A: EC50 [1]: 363 nM; Activity [2]: inactive

Q: Which results are given for `CCCNc1ccc(C(=O)O)cc1[N+](=O)[O-]`?
A: EC50 [1]: 29.5 nM; Activity [2]: inactive

Q: `O=C(O)c1ccc(NC(=O)c2ccccc2)nc1` was tested. Which EC50 [1] did it give?
A: 1580 nM

Q: And the Activity [2]?
A: inactive

Q: Which EC50 [1] does the source give for `COCC(C)Nc1ccc(C(=O)O)cn1` (centres undefined) here?
A: 3240 nM

Q: What about the Activity [2] of the same molecule?
A: inactive

Q: With `O=C(O)c1ccc(NC2CCCC2)c([N+](=O)[O-])c1` as the molecule, how does the EC50 [1] read?
A: 309 nM

Q: What about the Activity [2] of the same molecule?
A: inactive

Q: With `CCC(C)Nc1ccc(C(=O)O)cc1[N+](=O)[O-]` (centres undefined) as the molecule, how does the EC50 [1] read?
A: 151 nM

Q: And the Activity [2]?
A: inactive

Q: Which results are given for `CNc1ccc(C(=O)O)cn1`?
A: EC50 [1]: 7410 nM; Activity [2]: inactive

Q: Which results are given for `COCCNc1ccc(C(=O)O)cn1`?
A: EC50 [1]: 933 nM; Activity [2]: inactive

Q: For `O=C(O)c1ccc(N2CCCC2)nc1`, which Activity ([1]; CHO-K1) is on record?
A: inactive

Q: And the Activity [2]?
A: inactive

Q: How did the EC50 [1] turn out when `CN(C)c1ccc(C(=O)O)cc1[N+](=O)[O-]` was run?
A: 2040 nM

Q: And the Activity [2]?
A: inactive

Q: What does the source list for `CNc1ccc(C(=O)O)cc1[N+](=O)[O-]`?
A: EC50 [1]: 1910 nM; Activity [2]: inactive

Q: Which EC50 [1] does the source give for `CCCN(CCC)c1ccc(C(=O)O)cn1` here?
A: 6310 nM

Q: What about the Activity [2] of the same molecule?
A: inactive

Q: Which EC50 [1] does the source give for `CCNc1ccc(C(=O)O)cn1` here?
A: 398 nM

Q: What about the Activity [2] of the same molecule?
A: inactive

Q: For `CCCCNc1ccc(C(=O)O)cn1`, which EC50 [1] is on record?
A: 100 nM

Q: What about the Activity [2] of the same molecule?
A: inactive

Q: For `CCC(CC)Nc1ccc(C(=O)O)cc1[N+](=O)[O-]`, which EC50 [1] is on record?
A: 57.5 nM

Q: What about the Activity [2] of the same molecule?
A: inactive

Q: With `O=C(O)c1ccc(NC2CCC2)nc1` as the molecule, how does the EC50 [1] read?
A: 72.4 nM

Q: What about the Activity [2] of the same molecule?
A: inactive

Q: `O=C(O)c1ccc(NC2CCCC2)nc1` was tested. Which EC50 [1] did it give?
A: 389 nM

Q: And the Activity [2]?
A: inactive

Q: What does the source list for `CC(C)Nc1ccc(C(=O)O)cn1`?
A: EC50 [1]: 603 nM; Activity [2]: inactive

Q: Which results are given for `CC(C)CNc1ccc(C(=O)O)cn1`?
A: EC50 [1]: 1070 nM; EC50 [3]: 35000 nM

Q: For `C=CCNc1ccc(C(=O)O)cn1`, which EC50 [1] is on record?
A: 70.8 nM

Q: And the Activity [2]?
A: inactive

Q: Which results are given for `CC(C)C(C)Nc1ccc(C(=O)O)cn1` (centres undefined)?
A: EC50 [1]: 1320 nM; Activity [2]: inactive

Q: How did the EC50 [1] turn out when `O=C(O)c1ccc(NC2CC2)c([N+](=O)[O-])c1` was run?
A: 309 nM

Q: What about the Activity [2] of the same molecule?
A: inactive

Q: What does the source list for `O=C(O)c1ccc(Nc2ccccc2)nc1`?
A: EC50 [1]: 3240 nM; Activity [2]: inactive

Q: What does the source list for `CCC(CC)Nc1ccc(C(=O)O)cn1`?
A: EC50 [1]: 269 nM; EC50 [3]: 20000 nM

Q: With `CCCN(C)c1ccc(C(=O)O)cc1[N+](=O)[O-]` as the molecule, how does the EC50 [1] read?
A: 52.5 nM

Q: What about the Activity [2] of the same molecule?
A: inactive

Q: `CCCN(C)c1ccc(C(=O)O)cn1` was tested. Which EC50 [1] did it give?
A: 1620 nM

Q: And the Activity [2]?
A: inactive

Q: With `O=C(O)c1ccc(Nc2ccccc2)c([N+](=O)[O-])c1` as the molecule, how does the EC50 [1] read?
A: 2450 nM

Q: What about the Activity [2] of the same molecule?
A: inactive

Q: Which results are given for `CCN(CC)c1ccc(C(=O)O)cn1`?
A: EC50 [1]: > 10000 nM; Activity [2]: inactive

Q: What does the source list for `CCN(CC)c1ccc(C(=O)O)cc1[N+](=O)[O-]`?
A: EC50 [1]: 631 nM; Activity [2]: inactive

Q: What does the source list for `CC(C)Nc1ccc(C(=O)O)cc1[N+](=O)[O-]`?
A: EC50 [1]: 257 nM; Activity [2]: inactive

Q: How did the EC50 [1] turn out when `CCCCCNc1ccc(C(=O)O)cn1` was run?
A: 151 nM

Q: And the Activity [2]?
A: inactive

Q: How did the EC50 [1] turn out when `O=C(O)c1ccc(NCC2CCCO2)nc1` (centres undefined) was run?
A: 603 nM

Q: And the Activity [2]?
A: inactive

Q: Which results are given for `CCCN(CCC)c1ccc(C(=O)O)cc1[N+](=O)[O-]`?
A: EC50 [1]: 120 nM; Activity [2]: inactive
